According to US11229633B2, “Arimoclomol formulation” (Orphazyme A/S, priority 2014, dated 2022):
Entries after “also recorded” stand apart in the source; their conditions may differ.

Assays:
[1] = Stability at conventional extrusion temperature; format: physicochemical; conditions: 100-200° C.
OATP1B3 = molecular target: T1, OATP1B3 (Homo sapiens, UniProt Q9NPD5); experiment: Substrate statement, OATP1B3; format: in vitro ADME
T1 sequence (Q9NPD5 1-702): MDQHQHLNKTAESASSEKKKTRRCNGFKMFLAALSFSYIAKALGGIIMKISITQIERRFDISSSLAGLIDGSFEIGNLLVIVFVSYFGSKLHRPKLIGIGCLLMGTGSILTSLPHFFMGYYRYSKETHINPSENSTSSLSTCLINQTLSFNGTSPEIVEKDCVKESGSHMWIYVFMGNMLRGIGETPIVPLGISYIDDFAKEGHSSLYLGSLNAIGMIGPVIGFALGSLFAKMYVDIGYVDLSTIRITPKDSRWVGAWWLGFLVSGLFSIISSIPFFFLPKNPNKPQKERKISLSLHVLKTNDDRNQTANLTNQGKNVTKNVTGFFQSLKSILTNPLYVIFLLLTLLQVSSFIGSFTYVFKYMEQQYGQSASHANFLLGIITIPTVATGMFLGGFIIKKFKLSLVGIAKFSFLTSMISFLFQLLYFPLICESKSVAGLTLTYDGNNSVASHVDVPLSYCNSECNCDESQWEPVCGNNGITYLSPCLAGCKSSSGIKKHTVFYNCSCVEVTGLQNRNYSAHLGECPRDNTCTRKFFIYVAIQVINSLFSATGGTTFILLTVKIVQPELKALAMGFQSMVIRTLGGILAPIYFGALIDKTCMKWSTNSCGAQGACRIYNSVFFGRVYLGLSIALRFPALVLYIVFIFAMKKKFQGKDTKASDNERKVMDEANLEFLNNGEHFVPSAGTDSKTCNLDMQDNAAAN

human OAT3 = molecular target: T2, human OAT3 (Homo sapiens, UniProt Q8TCC7); experiment: Uptake transporter inhibition assay, OAT3; format: in vitro ADME; parameters: key to maximum inhibition: NIO: No interaction observed; conditions: for maximum inhibition: 0.3-300 μM
T2 construct: expressed in transfected cells; host or cells: MDCKII (protocol UPT-MDCKII-OAT3-E3S; control: parental MDCKII)
T2 sequence (Q8TCC7 1-542): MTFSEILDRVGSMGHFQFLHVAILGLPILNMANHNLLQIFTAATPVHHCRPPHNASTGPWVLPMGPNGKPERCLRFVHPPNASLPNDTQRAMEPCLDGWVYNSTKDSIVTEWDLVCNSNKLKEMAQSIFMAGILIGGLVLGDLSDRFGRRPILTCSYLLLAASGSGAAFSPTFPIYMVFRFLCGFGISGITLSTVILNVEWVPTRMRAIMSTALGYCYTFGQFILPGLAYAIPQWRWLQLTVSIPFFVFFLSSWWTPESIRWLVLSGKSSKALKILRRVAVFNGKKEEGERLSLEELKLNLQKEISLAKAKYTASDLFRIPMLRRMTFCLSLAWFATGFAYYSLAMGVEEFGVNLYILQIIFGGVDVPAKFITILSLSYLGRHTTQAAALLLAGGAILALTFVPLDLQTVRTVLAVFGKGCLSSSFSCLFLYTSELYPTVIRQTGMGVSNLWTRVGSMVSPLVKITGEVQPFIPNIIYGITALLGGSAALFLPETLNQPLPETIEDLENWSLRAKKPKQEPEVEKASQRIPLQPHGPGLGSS
Protocol: (§1) Uptake experiments were performed using CHO, MDCKII, or HEK293 cells stably expressing the respective uptake transporters.
(§2) Cells were cultured at 37±1° C. in an atmosphere of 95:5 air:CO2 and were plated onto standard 96-well tissue culture plates at the cell number described in table 4.
(§3) Before the experiment, the medium was removed and the cells were washed twice with 100 μl of HK buffer at pH 7.4 (prepared from Sigma chemicals, Sigma-Aldrich, St Louis, Mo.). Uptake experiments were carried out at 37±1° C. in 50 μl of HK buffer (pH 7.4) containing the probe substrate and the TA or vehicle control (water).
(§4) After the experiment, cells were washed twice with ice cold, 100 μl of HK buffer and lysed with 50 μl of 0.1 M NaOH (1 mM CaCl2) in 5% SDS in the case of OATP1B3). Fluo-3 transport (OATP1B3) was determined by measuring fluorescence using 485 nm and 520 nm as the excitation and emission wavelengths, respectively. Radiolabelled probe substrate transport was determined by measuring an aliquot (35 μl) from each well for liquid scintillation counting.
(§5) Uptake of the probe substrate in control cells provided background activity values for all data points. Incubation without TA or reference inhibitor (solvent only) provided 100% activity values. A reference inhibitor served as positive control for inhibition.
(§6) The amount of translocated probe substrate was determined for each well in cpm or RFU. Relative activities were calculated from the equation:
(§7) [formula] A: amount of translocated substrate in the presence of TA in transfected cells B: amount of translocated substrate in the presence of TA in control cells C: amount of translocated substrate in the presence of solvent in transfected cells D: amount of translocated substrate in the presence of solvent in control cells Calculation of Fold Accumulation Values
(§8) In uptake transporter inhibition assays, the IC50 (μM) was calculated, where applicable. […]

human OAT1 = molecular target: T3, human OAT1 (Homo sapiens, UniProt Q4U2R8); experiment: Uptake transporter inhibition assay, OAT1; format: in vitro ADME; parameters: key to maximum inhibition: NIO: No interaction observed; conditions: for maximum inhibition: 0.3-300 μM
T3 construct: expressed in transfected cells; host or cells: CHO (protocol UPT-CHO-OAT1-Tenofovir; control: parental CHO-K1)
T3 sequence (Q4U2R8 1-563): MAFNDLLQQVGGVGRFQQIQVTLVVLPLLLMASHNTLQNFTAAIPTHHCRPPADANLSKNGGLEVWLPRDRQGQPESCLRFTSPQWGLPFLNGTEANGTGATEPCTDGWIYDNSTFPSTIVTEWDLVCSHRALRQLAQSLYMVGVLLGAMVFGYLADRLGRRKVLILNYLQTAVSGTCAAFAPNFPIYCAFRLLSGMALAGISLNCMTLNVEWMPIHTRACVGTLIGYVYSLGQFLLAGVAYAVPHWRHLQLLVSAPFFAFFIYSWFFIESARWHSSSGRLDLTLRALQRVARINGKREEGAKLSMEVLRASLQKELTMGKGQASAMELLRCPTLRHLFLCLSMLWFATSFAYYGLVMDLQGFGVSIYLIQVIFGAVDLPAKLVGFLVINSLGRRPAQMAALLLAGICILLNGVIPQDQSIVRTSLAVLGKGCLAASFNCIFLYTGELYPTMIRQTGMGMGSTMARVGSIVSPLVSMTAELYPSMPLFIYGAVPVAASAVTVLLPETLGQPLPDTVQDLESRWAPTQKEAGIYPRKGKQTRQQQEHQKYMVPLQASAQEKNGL
Protocol: as §1, §2, §3, §4, §5, §6, §7, §8

[O-][n+]1cccc(C(Cl)=NOCC(O)CN2CCCCC2)c1 (centres unmarked) [Arimoclomol, N-[2-hydroxy-3-(1-piperidinyl)-propoxy]-pyridine-1-oxide-3-carboximidoyl chloride]
Stability at conventional extrusion temperature [1]: not stable | Substrate of the transporter (in words) (OATP1B3): not a substrate | maximum inhibition (human OAT3; Table 2): NIO | maximum inhibition (human OAT3; Table 5): NIO | Influence on OAT3-mediated probe substrate accumulation (in words) (human OAT3; applied concentrations): did not influence; also recorded: not an inhibitor | maximum inhibition (human OAT1; Table 2): NIO | maximum inhibition (human OAT1; Table 5): NIO | Influence on OAT1-mediated probe substrate accumulation (in words) (human OAT1; applied concentrations): did not influence; also recorded: not an inhibitor
